In patent publication US4353917A, “Amino derivatives of 2-methyl-5-(2-hydroxystyryl)-1,3,4-thiadiazole, their preparation, and formulations containing these compounds” (BASF Aktiengesellschaft, priority 1979, dated 1982):

Key:
[1] = target: T1, cardiac β1 -receptors (Felis catus, UniProt Q9TST6); experiment: β-Sympatholytic action: inhibition of isoproterenol-induced tachycardia in narcotized cats; assay type: in vivo; conditions: for β1 -Sympatholytic action R.A. (relative activity): Propranolol = 1.00, cats, intravenous; for ED50: cat, cats under hexobarbital narcosis, intravenous administration, read-out: β1 -Sympatholytic action ED 50%: dose which inhibits the isoproterenol-induced tachycardia by 50%; for blocking dose for cardiac β1 -receptors: times lower than that of propranolol: versus comparative substance propranolol
T1 construct: pulse rate of narcotized cats (weighing 2-4 kg); from tissue; host or cells: heart of the living cat (in vivo, hexobarbital narcosis)
Description: The β-sympatholytic action was tested on cats. […] The following methods were employed in the tests:
(§1) Isoproterenol (1 μg/kg, administered intravenously) causes increases, averaging 40%, in the pulse rate of narcotized cats (weighing 2-4 kg). β-Sympatholytic agents inhibit such tachycardia. Isoproterenol was administered before, and 10 and 40 minutes after, the intravenous administration of the test substances. Linear relationships exist between the logarithms of the administered doses (mg/kg) of the test substances and the inhibition of isoproterenol-induced tachycardia (%).
^(1) Inhibition of isoproterenolinduced tachycardia. Cats under
hexobarbital narcosis. Intravenous administration.
^(2) Dose (mg/kg), which inhibits the isoproterenolinduced tachycardi
^(3) Relative activity.

[2] = in vivo; conditions: mouse; for selectivity ratio: footnote (5) formula is a drawing, read-out: Therapeutic range; for LD50: ip, mice, intraperitoneal administration, read-out: Acute toxicity LD 50
[3] = tested on: NMRI mice; experiment: in vivo; conditions: mouse
[4] = tested on: pulse rate of narcotized cats; experiment: Increase in pulse rate of narcotized cats by isoproterenol; assay type: in vivo; conditions: 1 μg/kg, intravenously; narcotized cats (2-4 kg); average
Description: as §1, with “(%). From these relationships, the doses (ED 50%) which inhibit the isoproterenol-induced tachycardia by 50% are determined.” for “(%).”

T1 sequence (Q9TST6 whole entry): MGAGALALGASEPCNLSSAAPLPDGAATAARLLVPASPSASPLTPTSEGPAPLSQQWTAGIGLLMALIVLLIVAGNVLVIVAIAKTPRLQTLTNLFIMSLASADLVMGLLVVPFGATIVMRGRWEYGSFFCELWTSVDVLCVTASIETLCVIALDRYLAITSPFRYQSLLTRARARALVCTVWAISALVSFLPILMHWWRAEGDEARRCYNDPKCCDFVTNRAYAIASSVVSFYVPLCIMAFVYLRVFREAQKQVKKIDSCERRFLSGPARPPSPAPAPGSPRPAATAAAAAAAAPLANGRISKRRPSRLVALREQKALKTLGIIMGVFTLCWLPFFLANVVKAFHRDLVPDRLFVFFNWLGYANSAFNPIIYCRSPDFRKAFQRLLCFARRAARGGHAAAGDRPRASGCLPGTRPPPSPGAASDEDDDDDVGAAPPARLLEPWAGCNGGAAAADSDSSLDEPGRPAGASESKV

Compound: COc1ccc(CCNCC(O)COc2ccccc2C=Cc2nnc(C)s2)cc1OC (stereo not shown) [Example 2]
- β1 -Sympatholytic action R.A. (relative activity) [1]: 5.64
- ED50 [1]: 0.025 mg/kg
- blocking dose for cardiac β1 -receptors: times lower than that of propranolol [1]: 5.6 times
- selectivity ratio [2]: 3250
- LD50 [2]: 81.3 mg/kg
- therapeutic range: times greater than for propranolol [3]: 4.2 times

Compound: Cc1nnc(C=Cc2ccccc2OCC(O)CNC(C)CCc2ccc(O)cc2)s1 (stereo not shown) [Example 4]
- β1 -Sympatholytic action R.A. (relative activity) [1]: 6.71
- ED50 [1]: 0.021 mg/kg
- blocking dose for cardiac β1 -receptors: times lower than that of propranolol [1]: 6.7 times
- selectivity ratio [2]: 1990
- LD50 [2]: 41.7 mg/kg
- therapeutic range: times greater than for propranolol [3]: 2.6 times

Compound: CC(C)NCC(O)c1ccc(O)c(O)c1 (stereo not shown) [Isoproterenol]
- increase in the pulse rate [4]: ~40%
